Tests used:
[1] = biological target: Serine/threonine-protein kinase Nek11 (Homo sapiens) (UniProt Q8NG66); conditions: Compound concentration 1000.0 nM
[2] = biological target: Serine/threonine-protein kinase 3 (Homo sapiens) (UniProt Q13188); conditions: Compound concentration 1000.0 nM
[3] = biological target: Endothelin-1 receptor (Homo sapiens) (UniProt P25101); conditions: filed as agonist, Compound concentration 10.0 uM
[4] = biological target: Mast/stem cell growth factor receptor Kit (Homo sapiens) (UniProt P10721); conditions: Compound concentration 1000.0 nM
Chain of Mast/stem cell growth factor receptor Kit (Homo sapiens) (P10721 whole entry): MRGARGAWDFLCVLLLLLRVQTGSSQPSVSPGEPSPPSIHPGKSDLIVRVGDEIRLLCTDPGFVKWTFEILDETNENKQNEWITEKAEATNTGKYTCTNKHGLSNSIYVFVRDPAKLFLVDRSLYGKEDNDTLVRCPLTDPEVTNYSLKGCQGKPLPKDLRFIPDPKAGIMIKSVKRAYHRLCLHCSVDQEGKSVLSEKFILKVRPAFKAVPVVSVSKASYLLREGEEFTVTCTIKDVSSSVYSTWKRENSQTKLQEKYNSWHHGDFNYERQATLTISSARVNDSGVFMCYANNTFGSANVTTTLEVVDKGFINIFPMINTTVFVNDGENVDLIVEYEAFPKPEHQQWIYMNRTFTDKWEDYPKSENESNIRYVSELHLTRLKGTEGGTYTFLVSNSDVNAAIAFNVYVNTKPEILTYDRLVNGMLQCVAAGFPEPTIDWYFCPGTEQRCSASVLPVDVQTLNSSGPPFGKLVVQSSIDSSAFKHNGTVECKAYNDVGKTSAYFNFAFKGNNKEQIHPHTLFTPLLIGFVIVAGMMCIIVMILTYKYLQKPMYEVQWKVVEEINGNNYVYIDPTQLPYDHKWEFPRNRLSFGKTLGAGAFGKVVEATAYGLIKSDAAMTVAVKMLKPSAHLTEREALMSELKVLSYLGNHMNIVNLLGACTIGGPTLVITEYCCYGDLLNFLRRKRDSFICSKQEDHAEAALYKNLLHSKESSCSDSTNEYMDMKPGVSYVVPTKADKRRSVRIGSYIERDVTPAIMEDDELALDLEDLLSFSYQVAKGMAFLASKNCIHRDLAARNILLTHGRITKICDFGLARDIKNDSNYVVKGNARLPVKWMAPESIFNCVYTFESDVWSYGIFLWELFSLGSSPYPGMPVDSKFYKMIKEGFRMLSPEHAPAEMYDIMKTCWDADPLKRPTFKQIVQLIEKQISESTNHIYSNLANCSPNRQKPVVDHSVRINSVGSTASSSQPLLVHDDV

[5] = biological target: Serine/threonine-protein kinase Nek9 (Homo sapiens) (UniProt Q8TD19); conditions: Compound concentration 1000.0 nM
[6] = biological target: Serine/threonine-protein kinase STK11 (Homo sapiens) (UniProt Q15831); conditions: Compound concentration 1000.0 nM
[7] = biological target: Dual serine/threonine and tyrosine protein kinase (Homo sapiens) (UniProt Q6XUX3); conditions: Compound concentration 1000.0 nM
[8] = biological target: MAP/microtubule affinity-regulating kinase 3 (Homo sapiens) (UniProt P27448); conditions: Compound concentration 1000.0 nM
[9] = biological target: Serine/threonine-protein kinase RIO1 (Homo sapiens) (UniProt Q9BRS2); conditions: Compound concentration 1000.0 nM
[10] = biological target: RAC-gamma serine/threonine-protein kinase (Homo sapiens) (UniProt Q9Y243); conditions: Compound concentration 1000.0 nM
Chain of RAC-gamma serine/threonine-protein kinase (Homo sapiens) (Q9Y243 whole entry): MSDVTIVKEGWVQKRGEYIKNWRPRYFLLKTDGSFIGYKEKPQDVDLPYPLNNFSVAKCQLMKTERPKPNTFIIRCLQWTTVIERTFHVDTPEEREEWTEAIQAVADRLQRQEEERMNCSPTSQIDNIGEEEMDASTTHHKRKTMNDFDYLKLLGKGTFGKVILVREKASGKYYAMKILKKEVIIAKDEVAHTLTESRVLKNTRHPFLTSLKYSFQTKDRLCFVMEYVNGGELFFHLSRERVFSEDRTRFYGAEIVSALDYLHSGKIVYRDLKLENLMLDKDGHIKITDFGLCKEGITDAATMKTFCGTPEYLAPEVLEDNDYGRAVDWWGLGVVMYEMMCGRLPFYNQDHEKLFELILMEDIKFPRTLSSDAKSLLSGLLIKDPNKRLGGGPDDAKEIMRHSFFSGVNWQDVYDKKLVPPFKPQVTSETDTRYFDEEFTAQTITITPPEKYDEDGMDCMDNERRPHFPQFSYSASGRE

[11] = biological target: Non-receptor tyrosine-protein kinase TNK1 (Homo sapiens) (UniProt Q13470); conditions: Compound concentration 1000.0 nM
Chain of Non-receptor tyrosine-protein kinase TNK1 (Homo sapiens) (Q13470 whole entry): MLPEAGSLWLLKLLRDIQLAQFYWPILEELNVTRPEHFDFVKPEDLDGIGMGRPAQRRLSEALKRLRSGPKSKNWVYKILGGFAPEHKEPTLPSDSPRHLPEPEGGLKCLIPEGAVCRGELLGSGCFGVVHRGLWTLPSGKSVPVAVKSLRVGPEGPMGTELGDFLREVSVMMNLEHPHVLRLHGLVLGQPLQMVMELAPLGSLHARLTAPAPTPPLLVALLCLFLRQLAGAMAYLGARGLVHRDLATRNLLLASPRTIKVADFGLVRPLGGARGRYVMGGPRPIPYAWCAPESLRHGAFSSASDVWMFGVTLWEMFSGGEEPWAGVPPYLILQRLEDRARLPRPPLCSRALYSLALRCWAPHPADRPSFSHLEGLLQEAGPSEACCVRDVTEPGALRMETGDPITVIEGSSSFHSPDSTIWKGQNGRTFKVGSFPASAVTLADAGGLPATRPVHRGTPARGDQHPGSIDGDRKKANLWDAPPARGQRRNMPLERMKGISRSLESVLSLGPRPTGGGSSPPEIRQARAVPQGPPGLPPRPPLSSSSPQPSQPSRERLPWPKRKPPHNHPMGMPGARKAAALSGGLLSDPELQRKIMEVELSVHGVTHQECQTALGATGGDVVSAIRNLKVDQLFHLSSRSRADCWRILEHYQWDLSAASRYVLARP

[12] = biological target: Serine/threonine-protein kinase 35 (Homo sapiens) (UniProt Q8TDR2); conditions: Compound concentration 1000.0 nM
[13] = biological target: Serine/threonine-protein kinase NLK (Homo sapiens) (UniProt Q9UBE8); conditions: Compound concentration 1000.0 nM
[14] = biological target: Receptor-interacting serine/threonine-protein kinase 2 (Homo sapiens) (UniProt O43353); conditions: Compound concentration 1000.0 nM
[15] = test system: Mast/stem cell growth factor receptor Kit (Homo sapiens), P10721 [L576P]; conditions: Compound concentration 1000.0 nM
[16] = biological target: Insulin-like growth factor 1 receptor (Homo sapiens) (UniProt P08069); conditions: Compound concentration 1000.0 nM
[17] = biological target: 5-hydroxytryptamine receptor 1B (Homo sapiens) (UniProt P28222); assay: 5-HT1B(h) Eurofins-Cerep binding assay; set-up: ligand concentration 1 nM; conditions: filed as antagonist, Compound concentration 10.0 uM
[18] = biological target: Mitogen-activated protein kinase 11 (Homo sapiens) (UniProt Q15759); conditions: Compound concentration 1000.0 nM
Chain of Mitogen-activated protein kinase 11 (Homo sapiens) (Q15759 whole entry): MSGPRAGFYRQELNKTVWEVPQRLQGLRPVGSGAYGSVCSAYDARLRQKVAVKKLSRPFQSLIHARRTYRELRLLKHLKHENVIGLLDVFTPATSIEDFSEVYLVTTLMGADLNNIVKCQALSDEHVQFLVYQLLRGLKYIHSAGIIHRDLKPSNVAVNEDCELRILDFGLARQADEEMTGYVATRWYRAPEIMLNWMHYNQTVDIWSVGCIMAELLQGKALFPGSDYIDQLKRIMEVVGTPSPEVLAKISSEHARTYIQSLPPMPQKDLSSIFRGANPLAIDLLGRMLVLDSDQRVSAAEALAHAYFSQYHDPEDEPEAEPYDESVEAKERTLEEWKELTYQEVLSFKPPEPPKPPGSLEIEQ

[19] = biological target: T1, Alpha-2B adrenergic receptor (Homo sapiens) (UniProt P18089); assay: Alpha2B (h) Eurofins-Cerep binding assay; set-up: ligand concentration 2.5 nM; conditions: filed as antagonist, Compound concentration 10.0 uM
T1 sequence (whole entry): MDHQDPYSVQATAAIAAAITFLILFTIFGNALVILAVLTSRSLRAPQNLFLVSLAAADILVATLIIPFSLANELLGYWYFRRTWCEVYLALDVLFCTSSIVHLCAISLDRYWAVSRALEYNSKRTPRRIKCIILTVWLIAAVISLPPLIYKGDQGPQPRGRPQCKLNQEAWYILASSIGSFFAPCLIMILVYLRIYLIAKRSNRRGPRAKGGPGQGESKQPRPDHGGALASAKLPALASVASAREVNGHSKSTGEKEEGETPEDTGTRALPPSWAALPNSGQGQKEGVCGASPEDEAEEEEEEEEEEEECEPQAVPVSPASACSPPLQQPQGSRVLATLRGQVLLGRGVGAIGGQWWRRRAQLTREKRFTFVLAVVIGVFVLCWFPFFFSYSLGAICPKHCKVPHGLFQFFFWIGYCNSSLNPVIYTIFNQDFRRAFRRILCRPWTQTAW

[20] = test system: Tyrosine-protein kinase ABL1 (Homo sapiens), P00519 [E255K]; conditions: Compound concentration 1000.0 nM
[21] = biological target: Calcium/calmodulin-dependent protein kinase type 1 (Homo sapiens) (UniProt Q14012); conditions: Compound concentration 1000.0 nM
Chain of Calcium/calmodulin-dependent protein kinase type 1 (Homo sapiens) (Q14012 whole entry, looked up): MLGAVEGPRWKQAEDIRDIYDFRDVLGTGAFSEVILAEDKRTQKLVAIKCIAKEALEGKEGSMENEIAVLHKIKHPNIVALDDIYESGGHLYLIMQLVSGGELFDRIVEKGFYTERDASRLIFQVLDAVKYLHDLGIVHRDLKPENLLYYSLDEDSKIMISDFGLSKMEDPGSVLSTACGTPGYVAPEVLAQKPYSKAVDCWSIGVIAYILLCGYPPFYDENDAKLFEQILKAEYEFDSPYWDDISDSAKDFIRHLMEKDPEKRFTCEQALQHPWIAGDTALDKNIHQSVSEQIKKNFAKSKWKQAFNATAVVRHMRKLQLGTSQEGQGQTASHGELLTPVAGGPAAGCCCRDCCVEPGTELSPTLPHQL

[22] = biological target: GABA-A receptor; anion channel (Rattus norvegicus) (UniProt O09028+P15431+P18506+P18508+P19969+P20236+P23574+P23576+P28471+P28473+P30191+P62813+P63079+P63138+Q91ZM7+Q9ES14); assay: BZD (central) Eurofins-Cerep binding assay; assay type: protein-complex assay; set-up: ligand concentration 0.4 nM; conditions: filed as agonist, Compound concentration 10.0 uM
[23] = biological target: Serine/threonine-protein kinase D1 (Homo sapiens) (UniProt Q15139); conditions: Compound concentration 1000.0 nM
[24] = biological target: Atypical kinase COQ8B, mitochondrial (Homo sapiens) (UniProt Q96D53); conditions: Compound concentration 1000.0 nM
[25] = biological target: Serine/threonine-protein kinase PLK3 (Homo sapiens) (UniProt Q9H4B4); conditions: Compound concentration 1000.0 nM
[26] = biological target: Ephrin type-A receptor 7 (Homo sapiens) (UniProt Q15375); conditions: Compound concentration 1000.0 nM
Chain of Ephrin type-A receptor 7 (Homo sapiens) (Q15375 28-998 limits assumed): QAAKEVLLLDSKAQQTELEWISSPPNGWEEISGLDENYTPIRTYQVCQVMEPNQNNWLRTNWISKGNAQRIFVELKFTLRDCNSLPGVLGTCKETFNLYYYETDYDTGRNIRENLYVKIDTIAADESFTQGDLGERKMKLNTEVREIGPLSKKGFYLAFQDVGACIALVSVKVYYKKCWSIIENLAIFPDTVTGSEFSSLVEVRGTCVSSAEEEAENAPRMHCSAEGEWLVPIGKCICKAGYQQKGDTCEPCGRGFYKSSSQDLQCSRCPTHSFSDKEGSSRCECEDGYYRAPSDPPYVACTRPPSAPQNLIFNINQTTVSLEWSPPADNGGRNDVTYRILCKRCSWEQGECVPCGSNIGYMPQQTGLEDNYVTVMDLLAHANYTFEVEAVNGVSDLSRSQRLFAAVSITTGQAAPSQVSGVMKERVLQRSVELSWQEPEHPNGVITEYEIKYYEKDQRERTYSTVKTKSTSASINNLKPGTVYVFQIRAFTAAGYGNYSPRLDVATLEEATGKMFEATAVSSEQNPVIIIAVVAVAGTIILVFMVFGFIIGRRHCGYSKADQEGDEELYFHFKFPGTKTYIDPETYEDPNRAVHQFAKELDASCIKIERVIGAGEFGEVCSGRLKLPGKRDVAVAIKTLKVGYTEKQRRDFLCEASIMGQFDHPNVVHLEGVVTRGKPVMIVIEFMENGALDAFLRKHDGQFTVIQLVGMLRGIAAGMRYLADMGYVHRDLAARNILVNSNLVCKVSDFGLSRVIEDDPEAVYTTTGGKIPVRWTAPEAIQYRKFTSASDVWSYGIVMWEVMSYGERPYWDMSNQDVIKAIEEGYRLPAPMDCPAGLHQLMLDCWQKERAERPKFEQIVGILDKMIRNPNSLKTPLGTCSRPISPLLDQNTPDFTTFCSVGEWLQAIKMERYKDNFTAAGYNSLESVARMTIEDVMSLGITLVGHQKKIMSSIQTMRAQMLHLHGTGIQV

[27] = biological target: Serine/threonine-protein kinase haspin (Homo sapiens) (UniProt Q8TF76); conditions: Compound concentration 1000.0 nM
[28] = test system: Mast/stem cell growth factor receptor Kit (Homo sapiens), P10721 [V559D]; conditions: Compound concentration 1000.0 nM
[29] = test system: Tyrosine-protein kinase ABL1 (Homo sapiens), P00519 [F317I]; conditions: Compound concentration 1000.0 nM
Chain of Tyrosine-protein kinase ABL1 (Homo sapiens), P00519 [F317I] (P00519 whole entry F317I): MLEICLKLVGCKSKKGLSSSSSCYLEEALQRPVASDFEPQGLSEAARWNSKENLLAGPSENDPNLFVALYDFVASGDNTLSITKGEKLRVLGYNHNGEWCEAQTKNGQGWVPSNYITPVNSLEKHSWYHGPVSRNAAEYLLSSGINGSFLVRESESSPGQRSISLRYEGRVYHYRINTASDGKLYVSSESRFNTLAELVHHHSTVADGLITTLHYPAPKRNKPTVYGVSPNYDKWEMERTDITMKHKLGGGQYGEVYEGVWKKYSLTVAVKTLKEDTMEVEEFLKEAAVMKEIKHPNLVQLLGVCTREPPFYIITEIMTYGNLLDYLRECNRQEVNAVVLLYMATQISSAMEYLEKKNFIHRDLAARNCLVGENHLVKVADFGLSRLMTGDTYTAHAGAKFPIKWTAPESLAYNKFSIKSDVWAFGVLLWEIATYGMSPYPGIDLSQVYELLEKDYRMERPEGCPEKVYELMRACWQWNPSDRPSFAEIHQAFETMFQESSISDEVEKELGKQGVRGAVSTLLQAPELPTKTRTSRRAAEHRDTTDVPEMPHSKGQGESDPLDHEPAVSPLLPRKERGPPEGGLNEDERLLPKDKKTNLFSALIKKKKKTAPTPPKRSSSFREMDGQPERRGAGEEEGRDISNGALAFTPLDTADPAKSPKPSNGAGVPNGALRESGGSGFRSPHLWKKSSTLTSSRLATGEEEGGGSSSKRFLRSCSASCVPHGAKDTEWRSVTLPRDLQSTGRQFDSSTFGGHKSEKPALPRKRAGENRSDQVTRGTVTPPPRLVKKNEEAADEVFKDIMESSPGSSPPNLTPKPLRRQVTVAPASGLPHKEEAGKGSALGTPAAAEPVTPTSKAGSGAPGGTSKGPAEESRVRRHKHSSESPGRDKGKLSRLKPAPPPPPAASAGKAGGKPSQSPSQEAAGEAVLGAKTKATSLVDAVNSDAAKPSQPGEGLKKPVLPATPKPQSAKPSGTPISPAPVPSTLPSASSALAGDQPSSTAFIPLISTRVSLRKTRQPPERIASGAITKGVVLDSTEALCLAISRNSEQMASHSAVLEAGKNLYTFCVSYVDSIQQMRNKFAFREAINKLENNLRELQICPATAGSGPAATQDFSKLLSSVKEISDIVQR

[30] = biological target: Serine/threonine-protein kinase PLK1 (Homo sapiens) (UniProt P53350); conditions: Compound concentration 1000.0 nM
[31] = biological target: Serine/threonine-protein kinase LATS1 (Homo sapiens) (UniProt O95835); conditions: Compound concentration 1000.0 nM
[32] = biological target: Serine/threonine-protein kinase D3 (Homo sapiens) (UniProt O94806); conditions: Compound concentration 1000.0 nM
[33] = biological target: Cyclin-dependent kinase 18 (Homo sapiens) (UniProt Q07002); conditions: Compound concentration 1000.0 nM
[34] = biological target: Ribosomal protein S6 kinase alpha-1 (Homo sapiens) (UniProt Q15418); conditions: Compound concentration 1000.0 nM
[35] = biological target: BDNF/NT-3 growth factors receptor (Homo sapiens) (UniProt Q16620); conditions: Compound concentration 1000.0 nM
[36] = biological target: Activin receptor type-1B (Homo sapiens) (UniProt P36896); conditions: Compound concentration 1000.0 nM
[37] = biological target: Phosphatidylinositol 4,5-bisphosphate 3-kinase catalytic subunit gamma isoform (Homo sapiens) (UniProt P48736); conditions: Compound concentration 1000.0 nM

With CCCOc1ccc([C@H]2[C@H](C(=O)O)[C@@H](c3ccc4c(c3)OCO4)CN2CC(=O)Nc2c(CC)cccc2CC)cc1 [A-192621] the residual activity [1] was 59%, the residual activity [2] was 96% and the % Inhibition of Control Specific Binding (Mean n=2) [3] was 97.1%. For the same compound, the residual activity [4] was 92%, the residual activity [5] was 95% and the residual activity [6] was 88%. For the same compound, the residual activity [7] was 73%, the residual activity [8] was 100% and the residual activity [9] was 86%. The residual activity [10] was 82%, the residual activity [11] was 100% and the residual activity [12] was 92%. It also gave a residual activity [13] of 100%, a residual activity [14] of 100% and a residual activity [15] of 90%. For the same compound, the residual activity [16] was 89%, the % Inhibition of Control Specific Binding (Mean n=2) [17] was 12.3% and the residual activity [18] was 95%. For the same compound, the % Inhibition of Control Specific Binding (Mean n=2) [19] was 7.4%, the residual activity [20] was 70% and the residual activity [21] was 93%. The % Inhibition of Control Specific Binding (Mean n=2) [22] was -35.5%, the residual activity [23] was 94% and the residual activity [24] was 90%. It also gave a residual activity [25] of 83%, a residual activity [26] of 98% and a residual activity [27] of 62%. The residual activity [28] was 87%, the residual activity [29] was 71% and the residual activity [30] was 80%. It also gave a residual activity [31] of 77%, a residual activity [32] of 93% and a residual activity [33] of 100%. For the same compound, the residual activity [34] was 74%, the residual activity [35] was 85% and the residual activity [36] was 99%. The residual activity [37] was 68%.

For CCCOc1ccc([C@@H]2[C@@H](C(=O)O)[C@H](c3ccc4c(c3)OCO4)CN2CC(=O)Nc2c(CC)cccc2CC)cc1 [A-1806262], the residual activity [1] was 81%, the residual activity [2] was 100% and the % Inhibition of Control Specific Binding (Mean n=2) [3] was 63.7%. For the same compound, the residual activity [4] was 82%, the residual activity [5] was 100% and the residual activity [6] was 100%. It also gave a residual activity [7] of 82%, a residual activity [8] of 100% and a residual activity [9] of 100%. The residual activity [10] was 100%, the residual activity [11] was 93% and the residual activity [12] was 98%. The residual activity [13] was 100%, the residual activity [14] was 84% and the residual activity [15] was 100%. It also gave a residual activity [16] of 88%, a % Inhibition of Control Specific Binding (Mean n=2) [17] of 13.4% and a residual activity [18] of 98%. The % Inhibition of Control Specific Binding (Mean n=2) [19] was 1.5%, the residual activity [20] was 82% and the residual activity [21] was 100%. The % Inhibition of Control Specific Binding (Mean n=2) [22] was -12.9%, the residual activity [23] was 96% and the residual activity [24] was 89%. The residual activity [25] was 88%, the residual activity [26] was 92% and the residual activity [27] was 99%. The residual activity [28] was 93%, the residual activity [29] was 83% and the residual activity [30] was 95%. It also gave a residual activity [31] of 57%, a residual activity [32] of 86% and a residual activity [33] of 100%. It also gave a residual activity [34] of 77%, a residual activity [35] of 100% and a residual activity [36] of 90%. It also gave a residual activity [37] of 73%.

From ChEMBL document CHEMBL4507261, “Data for DCP probe A-192621” (2021)
